The results in this text go back to US5096922A, “Macrocyclic antibodies” (Gesellschaft fur Biotechnologische Forschung mbH, priority 1985, dated 1992).

Experiment [1] relates to Staphylococcus aureus Strain Wood 46 in human polymorphonuclear leucocytes. Description: in vitro test on human polymorphonuclear leucocytes and Staphylococcus aureus Strain Wood 46. In kind it is cell-based. The note with it: S. aureus Strain Wood 46. From the text: In the in vitro test on human polymorphonuclear leucocytes and Staphylococcus aureus Strain Wood 46, sorangicin A is effective against bacteria that occur intracellularly, e.g. staphylococcae.

Experiment [2] has as its target T1, reverse transcriptase of Moloney Murine leucaemia virus (Moloney murine leukemia virus, UniProt P03355).
T1 construct: reverse transcriptase of Moloney Murine leucaemia virus
Description: inhibition of reverse transcriptase enzyme. In kind it is biochemical. The note with it: reverse transcriptase of MLV; method of Wu et al.; read-out: ID50 (dose that inhibits the RT activity by 50%) (converted). As to the method:
Proof of the antiviral activity of the compounds of formula I against retroviruses is shown by in vitro and in vivo tests, but especially by an in vitro test system in which the inhibition of the reverse transcriptase enzyme is determined quantitatively by said compounds.
On poly A-oligo (dT), radioactively labelled TPP is hybridised with reverse transcriptase. The […] radioactivity is measured and serves as reference for the activity of the reverse transcriptase.
The ID50 of the compounds of formula I is determined by using them in the test system in different concentrations.
Sorangicin A is active against reverse transcriptase of Moloney Murine leucaemia virus; the ID50 [dose that inhibits the RT activity by 50%; method of Wu et al., Proc. Natl. Acad. Sci., 69, 3820 (1972)] for the reverse transcriptase of MLV is c. 7 μg/ml.

`CC(=CC(C)CCCCC(=O)O)C1OC2C=CC1OC(=O)C=CC=CC=CC1OC3CC1OC(C=CCC1OC(CC(O)C1C)C(O)C(O)C=CCCC=CC2)C3C` (stereo not drawn) [sorangicin A]: in experiment [1], the “activity against bacteria that occur intracellularly” value was “effective” and the activity within leucocytes result is “bactericidal activity”. For the same compound, in experiment [2], the IC50 was roughly 8.67 µM.
